From publication PMC11964917 (Nature Microbiology, 2025)

Legend:
recombinant NA A/H7N9 = type: biochemical, influenza A virus
influenza A/H5N1 virus = type: cell-based
influenza A/H7N9 virus = type: cell-based

SMILES | IC50 (recombinant NA A/H7N9) | EC50 (influenza A/H5N1 virus) | EC50 (influenza A/H7N9 virus)
CC(=O)N[C@H]1[C@H]([C@H](O)[C@H](O)CO)OC(C(=O)O)=C[C@@H]1N=C(N)N [ZAN, zanamivir] | > 100 nM | – | –
O=C1c2c(O)c(=O)ccn2N([C@@H]2c3ccccc3SCc3c2ccc(F)c3F)[C@@H]2COCCN12 [BXA, baloxavir acid] | – | < 0.03 nM | < 0.03 nM
